pIC50: −log10 of the molar value. “Also recorded” adds a separate entry of the source.
Legend:
MCF-7 = assay: MTT antiproliferative assay, MCF-7; format: cell-based; settings: Homo sapiens, MCF7, breast cancer MCF-7
Method: (§1) The in vitro antiproliferative activities of the newly synthesized compounds were evaluated against a panel of three human tumor cell lines, namely, breast cancer (MCF-7), hepatocellular carcinoma (HepG-2), and colorectal carcinoma (HCT-116) using the standard MTT method. The tested cell lines were selected depending on their VEGF overexpression. Sorafenib, the lead drug, was coassayed as a positive control.
(§2) The antiproliferative activity of the synthesized compounds was evaluated using MTT protocol as described (Supplementary data (available here)).

[1] = test system: MCF-7, HepG-2, and HCT-116; assay: MTT antiproliferative assay, panel of three tumor cell lines (range over lines); format: cell-based; settings: Homo sapiens, range over the three cancer cell lines, read-out: cytotoxic IC50, range over MCF-7, HepG-2 and HCT-116
Method: as §1, §2

HepG-2 = assay: MTT antiproliferative assay, HepG-2; format: cell-based; settings: Homo sapiens, HepG2, hepatocellular carcinoma HepG-2
Method: as §1, §2

HCT-116 = assay: MTT antiproliferative assay, HCT-116; format: cell-based; settings: Homo sapiens, colorectal carcinoma HCT-116
Method: as §1, §2

[2] = test system: WI-38 cell line (normal human lung fibroblasts); assay: MTT cytotoxicity against normal cells WI-38; format: cell-based; settings: normal human lung fibroblasts WI-38
Method: The cytotoxicity values of the synthesized compounds against the WI-38 cell line (normal human lung fibroblasts) were also evaluated in vitro.
as §2

Bcl-2 = Bcl-2 level in HepG-2 cells; format: cell-based, human; settings: for Bcl-2 Conc.: HepG-2 cells treated with compound; for Bcl-2 Fold: HepG-2 cells, versus control
Text: (§3) (2) Effects on Bcl-2 Family Proteins. The Bcl-2 family proteins are vital regulators of apoptosis cell death. Members of this family include the proapoptotic factor Bax which promotes cell death and the prosurvival (antiapoptotic) Bcl-2 which suppresses cell death. […] Results are expressed in Table 3.
(§4) (2) Effects on Bcl-2 Family Proteins. […] (Supplementary data).

BAX = BAX level in HepG-2 cells; format: cell-based, human; settings: for BAX Conc.: HepG-2 cells treated with compound; for BAX Fold: HepG-2 cells, versus control
Text: as §3, §4

TNF-α = TNF-α in HepG-2 supernatant (ELISA); format: cell-based, human
Text: (1) Estimation of Human Tumor Necrosis Factor Alpha (TNF-α) in HepG-2 Supernatant. […] Celecoxib, a potent inhibitor of TNF-α-induced cytokine expressions, was used as a positive control. […] Among the tested compounds, compound 7a caused a remarkably significant reduction in TNF-α levels (87%) in comparison to celecoxib (86%).
The levels of TNF-α in cell culture supernatants were estimated by the ELISA technique according to the reported procedure.

VEGFR-2 = VEGFR-2 (Homo sapiens, UniProt P35968); assay: In vitro VEGFR-2 enzyme inhibition assay; format: biochemical; settings: read-out: IC50 against VEGFR-2
caspase-3 = assay: Active caspase-3 level in HepG-2 cells; format: cell-based, human; settings: for Caspase 3 Conc.: HepG-2 cells treated with compound; for Caspase 3 Fold: HepG-2 cells, versus control
Text: (1) Effects on the Levels of Active Caspase-3. A significant mechanism by which anticancer agents can affect cancer cells is apoptosis. Apoptosis is a process of automated cell death. The apoptosis mechanism is typically mediated by a group of proteases called caspases. Caspase-3 is activated in every mammalian cell type provoking the cell to die, considered one of the apoptosis marks.
(1) Effects on the Levels of Active Caspase-3. […] (Supplementary data).

HepG-2 cells [3] = assay: Annexin V-FITC/PI apoptosis assay; format: cell-based, human; settings: HepG-2, IC50 dose (2.17 μM), 24 h
Method: (5) Apoptotic Cell Subpopulation Determination. To support the fact that derivative 7a induces apoptosis in the HepG-2 cancer cell line, annexin V-FITC and PI double-staining assay protocol was used. […] This is evidence that the antiproliferative activities are associated with a proapoptotic effect of the tested compound.
(4) Apoptotic Cell Subpopulation Determination. The annexin-V-FITC assay for compound 7a on HepG-2 cells was performed according to the reported procedure (Supplementary data).

[4] = test system: vascular smooth muscle cells (VSMCs); assay: Vascular smooth muscle cell proliferation; format: cell-based; settings: 2.5, 5, and 10 μM, 48 h
Method: In order to examine its effect on the proliferation of vascular smooth muscle cells (VSMCs), VSMCs were treated with increasing concentrations of compound 7a (2.5, 5, and 10 μM) for 48 h. The cellular proliferation results are illustrated in Figure 9.
VSMCs were isolated and cultured following the reported method (Supplementary data).

[5] = test system: VEGFR-2 protein expression; assay: Western blot of VEGFR-2 protein expression; format: cell-based, human; settings: HepG-2 cells, 10 h exposure, versus blank
Text: (4) Effect of Compound 7a on VEGFR-2 Protein Expression.

HepG-2 cells [6] = assay: Cell cycle analysis by flow cytometry; format: cell-based, human; settings: HepG-2, compound at its IC50 concentration
Method: (3) Cell Cycle Analysis. For further investigation of the apoptotic capacity of compound 7a, flow cytometric analysis was carried out on the HepG-2 cancer cell line treated with the tested compound at its IC50 concentrations using untreated HepG-2 cancer cells as a negative control. […] Accumulation of cells at the G2-M phase for 7a was estimated to be 46.74% versus 23.11% accumulation for control HepG-2 cells.
(3) Cell Cycle Analysis. According to the method described by Léonce et al., the flow cytometric analysis for compound 7a was performed (Supplementary data).

Sequence of VEGFR-2 (P35968 20-1356): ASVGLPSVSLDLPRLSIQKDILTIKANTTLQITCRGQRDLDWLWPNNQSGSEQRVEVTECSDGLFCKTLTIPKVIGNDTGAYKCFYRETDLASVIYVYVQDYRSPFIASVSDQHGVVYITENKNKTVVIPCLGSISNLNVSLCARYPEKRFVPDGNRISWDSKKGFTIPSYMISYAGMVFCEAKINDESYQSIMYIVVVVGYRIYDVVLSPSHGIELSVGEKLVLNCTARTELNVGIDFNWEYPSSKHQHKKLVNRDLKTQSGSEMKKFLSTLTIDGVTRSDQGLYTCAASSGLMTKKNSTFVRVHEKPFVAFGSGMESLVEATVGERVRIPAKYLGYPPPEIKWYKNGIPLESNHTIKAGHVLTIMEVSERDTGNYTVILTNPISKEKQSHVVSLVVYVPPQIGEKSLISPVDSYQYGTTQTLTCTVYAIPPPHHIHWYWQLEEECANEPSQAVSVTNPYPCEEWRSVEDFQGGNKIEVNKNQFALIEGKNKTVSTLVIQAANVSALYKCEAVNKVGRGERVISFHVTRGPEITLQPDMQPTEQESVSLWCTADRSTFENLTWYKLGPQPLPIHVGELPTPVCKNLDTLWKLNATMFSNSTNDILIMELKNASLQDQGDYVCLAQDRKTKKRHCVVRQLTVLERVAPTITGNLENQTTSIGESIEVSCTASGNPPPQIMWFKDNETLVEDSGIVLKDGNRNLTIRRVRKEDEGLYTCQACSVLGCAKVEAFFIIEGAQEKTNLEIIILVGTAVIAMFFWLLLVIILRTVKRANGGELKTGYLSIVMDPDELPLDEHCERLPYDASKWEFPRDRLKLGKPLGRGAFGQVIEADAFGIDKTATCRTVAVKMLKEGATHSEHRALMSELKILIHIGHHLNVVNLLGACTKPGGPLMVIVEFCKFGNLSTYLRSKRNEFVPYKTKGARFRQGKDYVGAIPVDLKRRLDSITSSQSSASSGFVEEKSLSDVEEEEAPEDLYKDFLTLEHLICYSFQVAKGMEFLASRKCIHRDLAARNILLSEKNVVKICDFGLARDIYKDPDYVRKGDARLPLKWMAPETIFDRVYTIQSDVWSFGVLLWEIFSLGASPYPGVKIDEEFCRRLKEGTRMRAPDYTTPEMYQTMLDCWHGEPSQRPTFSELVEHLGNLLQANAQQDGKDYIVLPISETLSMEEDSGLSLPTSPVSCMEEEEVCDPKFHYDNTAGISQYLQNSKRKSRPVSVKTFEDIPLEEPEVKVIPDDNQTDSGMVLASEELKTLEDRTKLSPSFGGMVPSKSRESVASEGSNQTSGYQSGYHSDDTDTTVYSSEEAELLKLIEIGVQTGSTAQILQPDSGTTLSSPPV

Row | SMILES | pIC50 (MCF-7) | pIC50 [1] | pIC50 (HepG-2) | pIC50 (HCT-116) | pIC50 [2] | melting point [°C] | Bcl-2 Conc. (Bcl-2) [pg/mL] | Bcl-2 Fold (Bcl-2) [fold] | BAX Conc. (BAX) [pg/mL] | BAX Fold (BAX) [fold] | TNF-α % inhibition (TNF-α) [%] | pIC50 (VEGFR-2) | Caspase 3 Conc. (caspase-3) [pg/mL] | Caspase 3 Fold (caspase-3) [fold] | also measured
1 | Cc1cccc(NC(=O)c2ccc(NC(=O)c3cccnc3)cc2)c1 [Compound 7h, N-(4-(m-Tolylcarbamoyl)phenyl)nicotinamide] | 4.72 | 4.50 to 4.85 | 4.83 | 4.64 | 4.02 | 217 to 219 | – | – | – | – | – | – | – | – | –
2 | COc1ccc(NC(=O)c2ccc(NC(=O)c3cccnc3)cc2)cc1 [Compound 7b, N-(4-((4-Methoxyphenyl)carbamoyl)phenyl)nicotinamide] | 5.90 | – | 5.67 | 5.60 | 4.09 | – | 1.92 | 0.36 | 257.5 | 11.93 | 72 | 5.46 | 397.61 | – | –
3 | Cc1ccc(NC(=O)c2ccc(NC(=O)c3cccnc3)cc2)cc1 [Compound 7j, N-(4-(p-Tolylcarbamoyl)phenyl)nicotinamide] | 4.77 | 4.50 to 4.85 | 4.85 | 4.82 | 4.07 | 219 to 222 | – | – | – | – | – | – | – | – | –
4 | COc1cccc(NC(=O)c2ccc(NC(=O)c3cccnc3)cc2)c1 [Compound 7a, N-(4-((3-Methoxyphenyl)carbamoyl)phenyl)nicotinamide] | 5.86 | – | 5.98 | 5.84 | 4.22 | – | 1.25 | 0.23 | 261.4 | 12.11 | 87 | 5.66 | 401.15 | – | early apoptotic population (HepG-2 cells [3]): 7.41%; late apoptotic population (HepG-2 cells [3]): 6.80%; effect on VSMC proliferation [4]: potent inhibitory effect; also recorded: significant antiproliferative effect at all concentrations tested; effect on VEGFR-2 protein expression [5]: downregulated the expression of VEGFR-2 protein; accumulation of cells at the G2-M phase (HepG-2 cells [6]): 46.74%; apoptotic cells at the pre-G1 phase (HepG-2 cells [6]): 10.5%; percentage of cells at G1 (HepG-2 cells [6]): 30.15%; percentage of cells at the S phase (HepG-2 cells [6]): 22.11%
5 | CN(C)c1ccc(/C=N/NC(=O)c2ccc(NC(=O)c3cccnc3)cc2)cc1 [Compound 11g, (E)-N-(4-(2-(4-(Dimethylamino)benzylidene)hydrazine-1-carbonyl)phenyl)-nicotinamide] | 5.24 | 5.14 to 5.46 | 5.19 | 5.32 | 4.15 | – | 2.55 | 0.48 | 160.2 | 7.42 | 47 | 5.21 | 324.36 | 6.31 | –
6 | Cc1ccc(NC(=O)c2ccc(NC(=O)c3cccnc3)cc2)c(C)c1 [Compound 7k, N-(4-((2,4-Dimethylphenyl)carbamoyl)phenyl)nicotinamide] | 4.77 | 4.50 to 4.85 | 4.70 | 4.73 | 4.12 | 254 to 256 | – | – | – | – | – | – | – | – | –
7 | O=C(N/N=C/c1ccccc1Cl)c1ccc(NC(=O)c2cccnc2)cc1 [Compound 11f, (E)-N-(4-(2-(2-Chlorobenzylidene)hydrazine-1-carbonyl)phenyl)-nicotinamide] | 5.21 | 5.14 to 5.46 | 5.15 | 5.46 | 4.21 | – | 2.25 | 0.42 | 142.5 | 6.60 | 60 | 5.38 | 292.11 | 5.68 | –
8 | O=C(N/N=C/c1ccc([N+](=O)[O-])cc1)c1ccc(NC(=O)c2cccnc2)cc1 [Compound 11c, (E)-N-(4-(2-(4-Nitrobenzylidene)hydrazine-1-carbonyl)phenyl)-nicotinamide] | 5.20 | 5.14 to 5.46 | 5.14 | 5.24 | 4.28 | – | 2.81 | 0.52 | 133.2 | 6.17 | 31 | 5.09 | 271.41 | 5.28 | –
9 | Cc1ccccc1NC(=O)c1ccc(NC(=O)c2cccnc2)cc1 [Compound 7f, N-(4-(o-Tolylcarbamoyl)phenyl)nicotinamide] | 4.69 | 4.50 to 4.85 | 4.50 | 4.74 | 3.80 | 194 to 197 | – | – | – | – | – | – | – | – | –
10 | O=C(Nc1ccc(C(=O)NC2CCCCC2)cc1)c1cccnc1 [Compound 5, N-(4-(Cyclohexylcarbamoyl)phenyl)nicotinamide] | 5.33 | – | 5.48 | 5.80 | 4.21 | – | 1.35 | 0.25 | 232.7 | 10.78 | 85 | 5.61 | 345.5 | 6.72 | –

From PMC8568530, “Inhibition of Vascular Smooth Muscle and Cancer Cell Proliferation by New VEGFR Inhibitors and Their Immunomodulator Effect: Design, Synthesis, and Biological Evaluation” (Oxidative Medicine and Cellular Longevity, 2021)
